Measured values taken from patent US20220389061A1, “IMMUNOMODULATORS” (priority 2019, published 2022).
Starred links: 1 amine or outer side, 2 acyl side, 3 side chain; linkers in the order of their positions; H or OH if unused. Positions of bridges follow the written chain, without caps; N, C: chain ends. Non-standard residues stand in square brackets, D forms with d. Residues, ends and D or L forms follow the SMILES beside them. Groups on a side chain read outwards from the residue. *: point of attachment. Trp(1-CH2COOH) = N[C@@H](Cc1cn(CC(=O)O)c2ccccc12)C(=O)O; X57 = O=C([C@H](CN/C(=N/c1ccccc1)c1ccccc1)N[*:1])[*:2]; Benzoyl(2-(4-MeOPh)) = COc1ccc(-c2ccccc2C(=O)*)cc1; X23 = COc1cc(NC(=S)*)ccc1-n1cnc(Cl)c1; Hyp = O=C(O)[C@@H]1C[C@@H](O)CN1; X44 = FC(F)(F)c1ccc(NC(=S)*)cc1; X94 = S=C(Nc1ccc(N2CCOCC2)nc1)*; NMeNle = CCCC[C@H](NC)C(=O)O; X7 = S=C(Nc1ccc2cc[nH]c2c1)*; X2 = c1ccc(-c2ccccc2N*)cc1; NMeA = CN[C@@H](C)C(=O)O; Dab = NCC[C@H](N)C(=O)O; Dap = NC[C@H](N)C(=O)O; X15 = Cc1ccc(Cl)cc1N*; X51 = Cc1cccc(Cl)c1N*; CO = O=C([*:1])[*:2]; NHPh = c1ccc(N*)cc1

biological target: T1, PD-1/PD-L1 (Homo sapiens, UniProt Q9NZQ7); experiment: PD-1/PD-L1 Homogenous Time-Resolved Fluorescence (HTRF) binding assay; details: not given
T1 construct: TVMV protease site linker (C); made in house; host or cells: HEK293T cells
T1 sequence (Q9NZQ7 18-239): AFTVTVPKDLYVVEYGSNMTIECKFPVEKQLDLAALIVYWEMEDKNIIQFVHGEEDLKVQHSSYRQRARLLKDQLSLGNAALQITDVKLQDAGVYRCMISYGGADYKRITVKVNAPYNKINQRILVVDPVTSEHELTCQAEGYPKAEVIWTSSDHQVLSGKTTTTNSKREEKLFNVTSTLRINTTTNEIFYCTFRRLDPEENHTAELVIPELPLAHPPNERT
Method in brief: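 HTRF read-out using europium cryptate anti-Ig (1 nM) and APC anti-His (20 nM) on extracellular-domain fusion proteins in dPBS/0.1% BSA/0.05% Tween-20. Inhibitor first incubated 15 min with 10 nM PD-L1-His, followed by 20 nM PD-1-Ig for another 15 min.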

Row | Compound | IC50
1 | CCCC[C@H]1C(=O)N(C)[C@@H](CCCC)C(=O)N[C@@H](CC(C)C)C(=O)N[C@H](C(=O)NCC(N)=O)CSCC(=O)N[C@@H](Cc2ccc(O)cc2)C(=O)N(C)[C@@H](C)C(=O)N[C@@H](CC(N)=O)C(=O)N2CCC[C@H]2C(=O)N[C@@H](CNC(=O)Nc2ccccc2-c2ccccc2)C(=O)N[C@@H](CC(C)C)C(=O)N2C[C@H](O)C[C@H]2C(=O)N[C@@H](Cc2c[nH]c3ccccc23)C(=O)N[C@@H](CCN)C(=O)N[C@@H](Cc2cn(CC(=O)O)c3ccccc23)C(=O)N1C [Example 1062] ({CH2CO}-Y[NMeA]NP[Dap]([CO-X2])L[Hyp]W[Dab][Trp(1-CH2COOH)][NMeNle][NMeNle]LCG-NH2; thioether N-14) | 3.4 nM

same assay, conditions: PD-L1-His 10 nM pre-incubated with inhibitor, PD-1-Ig 20 nM; read-out: HTRF IC50

Row | IC50 | Compound
2 | 3.3 nM | CCCC[C@H]1C(=O)N(C)[C@@H](CCCC)C(=O)N[C@@H](CC(C)C)C(=O)N[C@H](C(=O)NCC(N)=O)CSCC(=O)N[C@@H](Cc2ccc(O)cc2)C(=O)N(C)[C@@H](C)C(=O)N[C@@H](CC(N)=O)C(=O)N2CCC[C@H]2C(=O)N[C@@H](CNC(=S)Nc2ccc(N3CCOCC3)nc2)C(=O)N[C@@H](CC(C)C)C(=O)N2C[C@H](O)C[C@H]2C(=O)N[C@@H](Cc2c[nH]c3ccccc23)C(=O)N[C@@H](CCNC(=S)Nc2ccc(N3CCOCC3)nc2)C(=O)N[C@@H](Cc2cn(CC(=O)O)c3ccccc23)C(=O)N1C [Example 1093] ({CH2CO}-Y[NMeA]NP[Dap](X94)L[Hyp]W[Dab](X94)[Trp(1-CH2COOH)][NMeNle][NMeNle]LCG-NH2; thioether N-14)
3 | 9.98 nM | CCCC[C@H]1C(=O)N(C)[C@@H](CCCC)C(=O)N[C@@H](CC(C)C)C(=O)N[C@H](C(=O)NCC(N)=O)CSCC(=O)N[C@@H](Cc2ccc(O)cc2)C(=O)N(C)[C@@H](C)C(=O)N[C@@H](CC(N)=O)C(=O)N2CCC[C@H]2C(=O)N[C@@H](CN/C(=N/c2ccccc2)c2ccccc2)C(=O)N[C@@H](CC(C)C)C(=O)N2C[C@H](O)C[C@H]2C(=O)N[C@@H](Cc2c[nH]c3ccccc23)C(=O)N[C@@H](CCN)C(=O)N[C@@H](Cc2cn(CC(=O)O)c3ccccc23)C(=O)N1C [Example 1018] ({CH2CO}-Y[NMeA]NP[X57]L[Hyp]W[Dab][Trp(1-CH2COOH)][NMeNle][NMeNle]LCG-NH2; thioether N-14)
4 | 4.7 nM | CCCC[C@H]1C(=O)N(C)[C@@H](CCCC)C(=O)N[C@@H](CC(C)C)C(=O)N[C@H](C(=O)NCC(N)=O)CSCC(=O)N[C@@H](Cc2ccc(O)cc2)C(=O)N(C)[C@@H](C)C(=O)N[C@@H](CC(N)=O)C(=O)N2CCC[C@H]2C(=O)N[C@@H](CN)C(=O)N[C@@H](CC(C)C)C(=O)N2C[C@H](O)C[C@H]2C(=O)N[C@@H](Cc2c[nH]c3ccccc23)C(=O)N[C@@H](CCNC(=O)Nc2cc(Cl)ccc2C)C(=O)N[C@@H](Cc2cn(CC(=O)O)c3ccccc23)C(=O)N1C [Example 1117] ({CH2CO}-Y[NMeA]NP[Dap]L[Hyp]W[Dab]([CO-X15])[Trp(1-CH2COOH)][NMeNle][NMeNle]LCG-NH2; thioether N-14)
5 | 2 nM | CCCC[C@H]1C(=O)N(C)[C@@H](CCCC)C(=O)N[C@@H](CC(C)C)C(=O)N[C@H](C(=O)NCC(N)=O)CSCC(=O)N[C@@H](Cc2ccc(O)cc2)C(=O)N(C)[C@@H](C)C(=O)N[C@@H](CC(N)=O)C(=O)N2CCC[C@H]2C(=O)N[C@@H](CNC(=S)Nc2ccc3cc[nH]c3c2)C(=O)N[C@@H](CC(C)C)C(=O)N2C[C@H](O)C[C@H]2C(=O)N[C@@H](Cc2c[nH]c3ccccc23)C(=O)N[C@@H](CCNC(=S)Nc2ccc3cc[nH]c3c2)C(=O)N[C@@H](Cc2cn(CC(=O)O)c3ccccc23)C(=O)N1C [Example 3068] ({CH2CO}-Y[NMeA]NP[Dap](X7)L[Hyp]W[Dab](X7)[Trp(1-CH2COOH)][NMeNle][NMeNle]LCG-NH2; thioether N-14)
6 | 4.3 nM | CCCC[C@H]1C(=O)N(C)[C@@H](CCCC)C(=O)N[C@@H](CC(C)C)C(=O)N[C@H](C(=O)NCC(N)=O)CSCC(=O)N[C@@H](Cc2ccc(O)cc2)C(=O)N(C)[C@@H](C)C(=O)N[C@@H](CC(N)=O)C(=O)N2CCC[C@H]2C(=O)N[C@@H](CNC(=S)Nc2ccc(-n3cnc(Cl)c3)c(OC)c2)C(=O)N[C@@H](CC(C)C)C(=O)N2C[C@H](O)C[C@H]2C(=O)N[C@@H](Cc2c[nH]c3ccccc23)C(=O)N[C@@H](CCNC(=S)Nc2ccc(-n3cnc(Cl)c3)c(OC)c2)C(=O)N[C@@H](Cc2cn(CC(=O)O)c3ccccc23)C(=O)N1C [Example 1091] ({CH2CO}-Y[NMeA]NP[Dap](X23)L[Hyp]W[Dab](X23)[Trp(1-CH2COOH)][NMeNle][NMeNle]LCG-NH2; thioether N-14)
7 | 9.98 nM | CCCC[C@H]1C(=O)N(C)[C@@H](CCCC)C(=O)N[C@@H](CC(C)C)C(=O)N[C@H](C(=O)NCC(N)=O)CSCC(=O)N[C@@H](Cc2ccc(O)cc2)C(=O)N(C)[C@@H](C)C(=O)N[C@@H](CC(N)=O)C(=O)N2CCC[C@H]2C(=O)N[C@@H](CNC(=O)Nc2cc(Cl)ccc2C)C(=O)N[C@@H](CC(C)C)C(=O)N2C[C@H](O)C[C@H]2C(=O)N[C@@H](Cc2c[nH]c3ccccc23)C(=O)N[C@@H](CCN)C(=O)N[C@@H](Cc2cn(CC(=O)O)c3ccccc23)C(=O)N1C [Example 1106] ({CH2CO}-Y[NMeA]NP[Dap]([CO-X15])L[Hyp]W[Dab][Trp(1-CH2COOH)][NMeNle][NMeNle]LCG-NH2; thioether N-14)
8 | 3.5 nM | CCCC[C@H]1C(=O)N(C)[C@@H](CCCC)C(=O)N[C@@H](CC(C)C)C(=O)N[C@H](C(=O)NCC(N)=O)CSCC(=O)N[C@@H](Cc2ccc(O)cc2)C(=O)N(C)[C@@H](C)C(=O)N[C@@H](CC(N)=O)C(=O)N2CCC[C@H]2C(=O)N[C@@H](CNC(=S)Nc2ccc(C(F)(F)F)cc2)C(=O)N[C@@H](CC(C)C)C(=O)N2C[C@H](O)C[C@H]2C(=O)N[C@@H](Cc2c[nH]c3ccccc23)C(=O)N[C@@H](CCN)C(=O)N[C@@H](Cc2cn(CC(=O)O)c3ccccc23)C(=O)N1C [Example 1034] ({CH2CO}-Y[NMeA]NP[Dap](X44)L[Hyp]W[Dab][Trp(1-CH2COOH)][NMeNle][NMeNle]LCG-NH2; thioether N-14)
9 | 0.5 nM | CCCC[C@H]1C(=O)N(C)[C@@H](CCCC)C(=O)N[C@@H](CC(C)C)C(=O)N[C@H](C(=O)NCC(N)=O)CSCC(=O)N[C@@H](Cc2ccc(O)cc2)C(=O)N(C)[C@@H](C)C(=O)N[C@@H](CC(N)=O)C(=O)N2CCC[C@H]2C(=O)N[C@@H](CNC(=O)Nc2c(C)cccc2Cl)C(=O)N[C@@H](CC(C)C)C(=O)N2C[C@H](O)C[C@H]2C(=O)N[C@@H](Cc2c[nH]c3ccccc23)C(=O)N[C@@H](CCNC(=O)Nc2c(C)cccc2Cl)C(=O)N[C@@H](Cc2cn(CC(=O)O)c3ccccc23)C(=O)N1C [Example 1107] ({CH2CO}-Y[NMeA]NP[Dap]([CO-X51])L[Hyp]W[Dab]([CO-X51])[Trp(1-CH2COOH)][NMeNle][NMeNle]LCG-NH2; thioether N-14)

Row | Compound | IC50
10 | CCCC[C@H]1C(=O)N(C)[C@@H](CCCC)C(=O)N[C@@H](CC(C)C)C(=O)N[C@H](C(=O)NCC(N)=O)CSCC(=O)N[C@@H](Cc2ccc(O)cc2)C(=O)N(C)[C@@H](C)C(=O)N[C@@H](CC(N)=O)C(=O)N2CCC[C@H]2C(=O)N[C@@H](CNC(=O)c2ccccc2-c2ccc(OC)cc2)C(=O)N[C@@H](CC(C)C)C(=O)N2C[C@H](O)C[C@H]2C(=O)N[C@@H](Cc2c[nH]c3ccccc23)C(=O)N[C@@H](CCNC(=O)c2ccccc2-c2ccc(OC)cc2)C(=O)N[C@@H](Cc2cn(CC(=O)O)c3ccccc23)C(=O)N1C [Example 1095] ({CH2CO}-Y[NMeA]NP[Dap](Benzoyl(2-(4-MeOPh)))L[Hyp]W[Dab](Benzoyl(2-(4-MeOPh)))[Trp(1-CH2COOH)][NMeNle][NMeNle]LCG-NH2; thioether N-14) | 5.7 nM
11 | CCCC[C@H]1C(=O)N(C)[C@@H](CCCC)C(=O)N[C@@H](CC(C)C)C(=O)N[C@H](C(=O)NCC(N)=O)CSCC(=O)N[C@@H](Cc2ccc(O)cc2)C(=O)N(C)[C@@H](C)C(=O)N[C@@H](CC(N)=O)C(=O)N2CCC[C@H]2C(=O)N[C@@H](CNC(=O)Nc2ccccc2)C(=O)N[C@@H](CC(C)C)C(=O)N2C[C@H](O)C[C@H]2C(=O)N[C@@H](Cc2c[nH]c3ccccc23)C(=O)N[C@@H](CCNC(=O)Nc2ccccc2)C(=O)N[C@@H](Cc2cn(CC(=O)O)c3ccccc23)C(=O)N1C [Example 1009] ({CH2CO}-Y[NMeA]NP[Dap]([CO-NHPh])L[Hyp]W[Dab]([CO-NHPh])[Trp(1-CH2COOH)][NMeNle][NMeNle]LCG-NH2; thioether N-14) | 6.5 nM
12 | CCCC[C@H]1C(=O)N(C)[C@@H](CCCC)C(=O)N[C@@H](CC(C)C)C(=O)N[C@H](C(=O)NCC(N)=O)CSCC(=O)N[C@@H](Cc2ccc(O)cc2)C(=O)N(C)[C@@H](C)C(=O)N[C@@H](CC(N)=O)C(=O)N2CCC[C@H]2C(=O)N[C@@H](CNC(=O)c2ccccc2-c2ccc(OC)cc2)C(=O)N[C@@H](CC(C)C)C(=O)N2C[C@H](O)C[C@H]2C(=O)N[C@@H](Cc2c[nH]c3ccccc23)C(=O)N[C@@H](CCN)C(=O)N[C@@H](Cc2cn(CC(=O)O)c3ccccc23)C(=O)N1C [Example 1063] ({CH2CO}-Y[NMeA]NP[Dap](Benzoyl(2-(4-MeOPh)))L[Hyp]W[Dab][Trp(1-CH2COOH)][NMeNle][NMeNle]LCG-NH2; thioether N-14) | 3.7 nM
13 | CCCC[C@H]1C(=O)N(C)[C@@H](CCCC)C(=O)N[C@@H](CC(C)C)C(=O)N[C@H](C(=O)NCC(N)=O)CSCC(=O)N[C@@H](Cc2ccc(O)cc2)C(=O)N(C)[C@@H](C)C(=O)N[C@@H](CC(N)=O)C(=O)N2CCC[C@H]2C(=O)N[C@@H](CNC(=O)c2ccccc2-c2ccc(OC)cc2)C(=O)N[C@@H](CC(C)C)C(=O)N2C[C@H](O)C[C@H]2C(=O)N[C@@H](Cc2c[nH]c3ccccc23)C(=O)N[C@@H](CCN)C(=O)N[C@@H](Cc2cn(CC(=O)O)c3ccccc23)C(=O)N1C [Example 1061] ({CH2CO}-Y[NMeA]NP[Dap](Benzoyl(2-(4-MeOPh)))L[Hyp]W[Dab][Trp(1-CH2COOH)][NMeNle][NMeNle]LCG-NH2; thioether N-14) | 4 nM
